Laboratory results published in PMC9704608, “Anti-leishmanial physalins—Phytochemical investigation, in vitro evaluation against clinical and MIL-resistant L. tropica strains and in silico studies” (PLOS ONE, 2022).
Read-outs that look alike come from different tables or passages of the source.

Experiments:
L. major promastigotes = assay: Promastigote growth inhibition assay (MTT), L. major; format: cell-based, Leishmania major; settings: for IC50: Leishmania major; for IC50 / L. major IC50 (μM± SD): 72 h; for anti-leishmanial activity against promastigotes of L. major (in words): in vitro
Procedure: (§1) L. major and L. tropica (Clinical isolates) promastigotes were grown at […] in RPMI-1640 (Sigma) medium containing 10% of heat-inactivated (56°C for 30 min) fetal bovine serum. Cell viability was initially evaluated by wet mount method by observing the live cells under compound microscope. Parasite growth was assessed by counting live / motile promastigotes in a Neubauer chamber. Viable cell count was used for the further experimentations (treatments).
(§2) The promastigotes in their log phase were used in 96-well plates. 1 × 10^6 wild-type and resistant promastigotes were dispensed in 96 96-well plates, and incubated with tested compounds at a range concentration of 200–10 μM at 27°C for 72 h. After incubation of 72 h, MTT dye (3-(4,5-dimethylthiazol-2-yl)-2,5-diphenyl-2H-tetrazolium bromide) was added and further incubate it for 3–4 h. Amphotericin B, pantamidine and miltefosine were used as the positive control, untreated promastigotes were used as negative control moreover DMSO control was also added in the study as a stock solution of the compounds that were prepared in DMSO. All the experiments were performed in triplicates. After completion of the experiment the absorbance by Multiskan ascent plate reader at 452 nm and percent inhibition was calculated by the following formula.
(§3) Cytotoxic concentration (%) = [100- (Absorbance of test)/ (Absorbance of solvent control) ×100] %.

L. tropica promastigotes = assay: Promastigote growth inhibition assay (MTT), L. tropica clinical isolates; format: cell-based, Leishmania tropica; settings: for IC50: Leishmania tropica; for IC50 / L. tropica IC50 (μM± SD): 72 h
Procedure: as §1, §2, §3

[1] = Cytotoxicity (MTT) against BJ cell line; format: cell-based, human; settings: pure compounds, human fibroblast, 48 h, read-out: BJ cell line CC50 (μM± SD)
Procedure: (§4) The cytotoxicity of the test compounds against normal cell lines was evaluated through MTT (3-[4, 5-dimethylthiazole-2-yl]-2, 5-diphenyl-tetrazolium bromide] colorimetric assay in 96-well flat-bottomed microplates. The 3T3 (mouse fibroblast) and BJ (human fibroblast) were cultured Dulbecco’s Modified Eagle Medium, supplemented with 5% of fetal bovine serum (FBS), 100 IU/mL of penicillin and 100 μg/mL of streptomycin in 75 cm2 flasks, and then incubated in 5% CO2 incubator at 37°C. The growing cells were counted by using a haemocytometer, and diluted with the particular medium. The 5x10^4 cells/mL of the cell culture was prepared, and a sample […] was introduced into each well. […] After 48 hours, 200 μL MTT (0.5 mg/mL) was added, and the incubation was further continued for 4 hrs. After that time, 100 μL of DMSO was added to each well. The absorbance was measured using a micro plate reader (Spectra Max Plus, Molecular Devices, CA, USA) at 570 nm for the extent of MTT reduction to formazan within the cells. The cytotoxicity was recorded as CC50 against cells by using Soft- Max Pro software. Doxorubicin and cycloheximide were used as positive control. The experiments were run in triplicate.

[2] = test system: BJ (human fibroblast) cells; assay: Cytotoxicity (MTT) against BJ cell line; format: cell-based; settings: for L. tropica SI (CC50/ IC50): CC50 BJ cell line / IC50 L. tropica; for BJ (human fibroblast) IC50 (μM± SD): cytotoxicity of compounds 1-9; for BJ cell line CC50 (μM± SD): pure compounds, human fibroblast, 48 h; for IC50: Homo sapiens, Fibroblast, read-out: BJ (human fibroblast) IC50 (μM± SD)
Procedure: as §4

[3] = test system: 3T3 (mouse fibroblast) cells; assay: Cytotoxicity (MTT) against 3T3 cell line; format: cell-based; settings: for 3T3 (mouse fibroblast) IC50 (μM ± SD): cytotoxicity of compounds 1-9; for IC50: Mus musculus, Fibroblast, read-out: 3T3 (mouse fibroblast) IC50 (μM ± SD); for 3T3 Cell line CC50 (μM± SD): pure compounds, mouse fibroblast, 48 h
Procedure: (§5) The cytotoxicity of the test compounds against normal cell lines was evaluated through MTT (3-[4, 5-dimethylthiazole-2-yl]-2, 5-diphenyl-tetrazolium bromide] colorimetric assay in 96-well flat-bottomed microplates. The 3T3 (mouse fibroblast) and BJ (human fibroblast) were cultured Dulbecco’s Modified Eagle Medium, supplemented with 5% of fetal bovine serum (FBS), 100 IU/mL of penicillin and 100 μg/mL of streptomycin in 75 cm2 flasks, and then incubated in 5% CO2 incubator at 37°C. The growing cells were counted by using a haemocytometer, and diluted with the particular medium. The 5x10^4 cells/mL of the cell culture was prepared, and a sample […] was introduced into each well. The medium was removed after overnight incubation, and 200 μL of fresh medium was added with different concentrations of compounds (1–30 μM). After 48 hours, 200 μL MTT (0.5 mg/mL) was added, and the incubation was further continued for 4 hrs. After that time, 100 μL of DMSO was added to each well. The absorbance was measured using a micro plate reader (Spectra Max Plus, Molecular Devices, CA, USA) at 570 nm for the extent of MTT reduction to formazan within the cells. The cytotoxicity was recorded as CC50 against cells by using Soft- Max Pro software. Doxorubicin and cycloheximide were used as positive control. The experiments were run in triplicate.

[4] = test system: MIL-resistant L. tropica promastigotes; assay: Growth inhibition assay (MTT) against MIL-resistant line; format: cell-based, Leishmania tropica; settings: 72 h; for MIL Resistant L. tropica IC50 (μM± SD): miltefosine-unresponsive strain, promastigotes
Procedure: as §2, §3
Promastigote cultures tL. tropica (Clinical isolates) were maintained at 26°C in RPMI-1640 medium containing 15% FBS and 1% penicillin–streptomycin mixture.
Generation of miltefosine-unresponsive strain was carried under high MIL pressure by in vitro passage with a stepwise increase in the MIL concentration. At each step, parasites were cultured and passaged every 3–4 days at an initial concentration of 5x10^5 promastigotes/mL in order to achieve -stable growth as compared to the wildtype isolate. Growth rates were measured for resistant populations and compared with the WT strain. Parasites were counted at an initial concentration of 5x10^5 parasites/mL and growth was measured daily using a Neubauer chamber until the population reached the stationary phase. Furthermore, the fluorescence microscopic investigations via DAPI stain were also carried out to supplement the study.

[5] = Cytotoxicity (MTT) against 3T3 cell line; format: cell-based, mouse; settings: pure compounds; mouse fibroblast, 48 h; read-out: 3T3 Cell line CC50 (μM± SD)
Procedure: as §5

[6] = CC50 BJ fibroblast cell line / IC50 L. major
[7] = extracts, fractions, standard drugs, promastigotes, read-out: L. major IC50 (μg/ml ± SD)
[8] = pure compounds, standard drugs, promastigotes, read-out: L. major IC50 (μM± SD)
[9] = CC50 BJ fibroblast cell line / IC50 L. tropica
[10] = extracts, fractions, standard drugs, promastigotes, read-out: L. tropica IC50 (μg/ml ± SD)
[11] = pure compounds, standard drugs, promastigotes, clinical isolate, read-out: L. tropica IC50 (μM± SD)
[12] = pure compounds, standard drugs, promastigotes
[13] = pure compounds, standard drugs, promastigotes, clinical isolate
[14] = CC50 3T3 mouse fibroblast cell line / IC50 L. major
[15] = read-out: L. major IC50 (μM± SD)
[16] = read-out: L. tropica IC50 (μM± SD)

Row | SMILES | L. major SI (CC50/ IC50) (L. major promastigotes; [6]) | IC50 (L. major promastigotes; [7]) [µg/mL] | IC50 (L. major promastigotes; [8]) [µM] | L. tropica SI (CC50/ IC50) (L. tropica promastigotes; [9]) | IC50 (L. tropica promastigotes; [10]) [µg/mL] | IC50 (L. tropica promastigotes; [11]) [µM] | L. tropica SI (CC50/ IC50) [2] | anti-leishmanial activity against promastigotes of L. major (in words) (L. major promastigotes) | L. major IC50 (μM± SD) (L. major promastigotes; [12]) | BJ (human fibroblast) IC50 (μM± SD) [2] | 3T3 (mouse fibroblast) IC50 (μM ± SD) [3] | IC50 (L. major promastigotes; [15]) [µM] | IC50 (L. tropica promastigotes; [16]) [µM] | CC50 at 48 h [1] [µM] | MIL Resistant L. tropica IC50 (μM± SD) [4] | 3T3 Cell line CC50 (μM± SD) [3] | further results
1 | C[C@@H]1[C@H](O)[C@@H](C)/C=C/C=C/C=C/C=C/C=C/C=C/C=C/[C@H](O[C@@H]2O[C@H](C)[C@@H](O)[C@H](N)[C@@H]2O)C[C@@H]2O[C@](O)(C[C@@H](O)C[C@@H](O)[C@H](O)CC[C@@H](O)C[C@@H](O)CC(=O)O[C@H]1C)C[C@H](O)[C@H]2C(=O)O [Amphotericin B, reference compound] | 4.37 | 3.14 ± 0.04 | 3.39 ± 0.043 | 4.69 | 3.16 ± 0.04 | 3.42 ± 0.04 | 4.69 |  |  |  |  |  |  |  |  |  | CC50 at 48 h ([1]; BJ fibroblast cells): 16.1 µM
2 | CC12C(=O)C=CC=C1C(O)CC1C(=O)C3=NCC4C(=O)OC5CC4(C)C3C3(O)C(O)(CCC12)C(=O)OC53C (stereo not drawn) [Compound 1, Aminophysalin B] |  |  |  |  |  |  |  | no significant activity | Inactive | Non cytotoxic | Non cytotoxic |  |  |  |  |  | L. tropica IC50 (μM± SD) (L. tropica promastigotes; [13]): Inactive; BJ cell line CC50 (μM± SD) [2]: Non cytotoxic
3 | C[C@]12C(=O)C=CCC1=CC[C@@H]1[C@@H]2CC[C@]2(O)C(=O)O[C@@]3(C)[C@H]4C[C@]5(C)[C@@H](CO[C@@]16O[C@@]32[C@H]5C6=O)C(=O)O4 [Compound 2, Physalin B] | 3.5 |  |  | 0.8 |  |  | 0.8 |  |  |  |  | 3.04 ± 1.12 | 13.33 ± 0.098 | 10.8 ± 1.5 | inactive |  | L. major SI (CC50/ IC50) (L. major promastigotes; [14]): 3.28; L. major SI (CC50/ IC50) ([2]; CC50 BJ cell line / IC50 L. major): 3.5; IC50 [2]: 27.6 ± 0.9 µM; CC50 at 48 h [5]: 10 ± 0.4 µM; IC50 [3]: 10 ± 0.4 µM
4 | CC12CC3OC(=O)C1COC14OC5(C2C1=O)C(O)(CCC1C4CC2OC24CC=CC(=O)C14C)C(=O)OC35C (stereo not drawn) [Compound 3, 5β, 6β-epoxyphysalin B] | 7.34 |  |  | 1.48 |  |  | 1.48 |  |  |  |  | 3.76 ± 0.85 | 18.5 ± 0.28 | 27.6 | inactive |  | L. major SI (CC50/ IC50) (L. major promastigotes; [14]): 0.19; L. tropica SI (CC50/ IC50) (L. tropica promastigotes; CC50 3T3 mouse fibroblast cell line / IC50 L. tropica): 0.038; IC50 [2]: 10.8 ± 1.5 µM; CC50 at 48 h [5]: 0.72 ± 0.5 µM; L. tropica SI (CC50/ IC50) ([3]; CC50 3T3 cell line / IC50 L. tropica): 0.038; IC50 [3]: 0.72 ± 0.5 µM
5 | C[C@]12C(=O)C=CC=C1[C@@H](O)C[C@@H]1[C@@H]2CC[C@@]2(O)C(=O)O[C@@]3(C)[C@H]4C[C@]5(C)[C@@H](CO[C@@]16O[C@]23[C@H]5C6=O)C(=O)O4 [Compound 7, Physalin G] |  |  |  |  |  |  |  | no significant activity |  | Non cytotoxic | Non cytotoxic | 52.3 ± 1.18 | 19.49 ± 0.02 | > 100 |  | Non cytotoxic | IC50 ([4]; Leishmania tropica, read-out: MIL Resistant L. tropica IC50 (μM± SD)): 39.4 ± 0.65 µM
6 | CC12CC3OC(=O)C1COC14OC5(C2C1=O)C(O)(CC(O)C1C4CC(O)C24C=CC(OO2)C(=O)C14C)C(=O)OC35C (stereo not drawn) [Compound 8, Physalin K] |  |  |  |  |  |  |  | no significant activity | inactive | Non cytotoxic | Non cytotoxic |  |  |  | inactive | Non cytotoxic | L. tropica IC50 (μM± SD) (L. tropica promastigotes; [13]): inactive; CC50 [1]: > 100 µM
7 | C[C@@]12C[C@H]3OC(=O)[C@@H]1CO[C@@]14O[C@]5([C@H]2C1=O)[C@@](O)(CC[C@H]1[C@H]4C[C@@H](O)[C@@]2(O)CC=CC(=O)[C@]12C)C(=O)O[C@@]35C [Compound 9, Physalin D] |  |  |  |  |  |  |  | no significant activity | inactive | Non cytotoxic | Non cytotoxic |  | 55.24 ± 0.01 | > 100 | inactive | Non cytotoxic | 
8 | CCCCCCCCCCCCCCCCOP(=O)([O-])OCC[N+](C)(C)C [Miltefosine, reference compound] |  | 10.4 ± 0.42 | 25.6 ± 1.03 |  | 17.4 ± 0.42 | 42.8 ± 1.03 |  |  |  |  |  |  |  |  |  |  | BJ cell line CC50 (μM± SD) [2]: non-toxic
9 | N=C(N)c1ccc(OCCCCCOc2ccc(C(=N)N)cc2)cc1 [Pentamidine, reference compound] |  | 9.25 ± 0.005 | 27.2 ± 0.015 |  | 9.25 ± 0.005 | 27.2 ± 0.01 |  |  |  |  |  |  |  |  |  |  | 
